Measured values taken from patent publication US7824661B2, “Technetium- and rhenium-bis(heteroaryl) complexes, and methods of use thereof” (priority 2002, dated 2010).

Assays:
[1] = Whole body biodistribution studies in rats; format: in vivo, Rats (Sprague Dawley, male)
Experimental: The animal care and use procedures were in accordance with the Guide for the Care and Use of Laboratory Animals and the Animal Welfare Act. The vertebrate animals in this research project were used to investigate the biodistribution and pharmacokinetics of the rotenone derivatives and determine uptake in the heart. Rats (Sprague Dawley, male, at 80-100 grams each) were used for the whole body biodistribution studies. The Tc-complexes, as well as Cardiolite™, were evaluated at three time points; 5, 30, and 120 minutes, with five animals per time point. In order to provide accurate statistics in the clearance rate measurements and to account for intra-species variation it was necessary to use this number of animals. The product was diluted to ˜10 μCi/100 μl using freshly prepared 10% ethanol/saline (0.9%) solution. The rats were injected via a lateral tail vein with a volume of 0.1 mL. The rats were sacrificed by decapitation, with immediate blood collection at the desired time points. Whole body biodistributions were performed on the animals immediately following decapitation, organ and tissue samples were taken and washed of excess blood, blotted dry and weighed. Radioactivity was assayed using automated Nal well counter. All tissue samples were counted together along with an aliquot of the injected dose so that % injected dose and % injected dose per gram of tissue could be calculated. […]

[2] = format: physicochemical
Experimental: The stability and robustness of the technetium-di(pyridine) complexes was assessed using challenges with free cysteine and histidine. Specifically, the experiments were performed using [^99mTc(CO)3(dipyridinemethylamine)]^+1.
This approach enables the creation of libraries containing the {M(CO)31}^1+ core. We have begun to define the biological fate of the ^99mTc-dipyridine complexes, allowing us to compare a series of future tridentate analogs. The dipyridine labeling proceeded in high yield and was stable to excess histidine and cysteine challenges for more than 18 hours. […] Activity decreased in all tissues as a function of time, except in the GI tract, which increased with time.
[^99mTc(CO)3(H2O)3]^+ was heated with [{N,N-di(pyridyl-2-methyl)}N-butyl-phthalimide in 0.5 mL (1 mg/mL) of methanol at 100° C. for 60 minutes. […] The product eluted with methanol at 20.8 minutes. The HPLC analysis was performed using a Supelco C18 column, 25 cm×4.6 mm column (5 μm pore size), equipped with 2 cm guard using solvent A=0.05 M triethylammonium phosphate buffer pH 2.5 and solvent B=methanol. The method employed was a gradient 5-95% B, 1 mL/minute for 30 minutes. The gradient ramped from 5-95 from 3-20 minutes.

stability and robustness in challenges with free cysteine and histidine [2]	change in the components by HPLC analysis ([2]; aqueous solution of the complex incubated with cysteine for 18 hours at 37° C. at pH 7.4)	Substance	blood clearance, % ID/g ([1]; at 5 minutes) [% ID/g]	blood clearance, % ID/g ([1]; by 30 minutes) [% ID/g]
–	–	[^99mTc(CO)3(DpK)]	0.6	0.07
stable	no significant change	[^99mTc(CO)3(dipyridinemethylamine)]^+1	–	–
